According to patent US6303591A, “21-hydroxy-6,19-oxidoprogesterone (21OH-6OP) and its use as medicament for treating excess of glucocorticoids” (Applied Research Systems ARS Holding NV, priority 1997, dated 2001):
Entries after “also recorded” stand apart in the source; their conditions may differ.

Tests used:
[1] = target: T1, CBG partially purified from rat plasma (Rattus norvegicus, UniProt P31211); test: displacement of (^3 H)-B binding to partially purified CBG
T1 construct: CBG partially purified from rat plasma; from tissue; host or cells: rat plasma, partially purified
T1 sequence (P31211 23-396): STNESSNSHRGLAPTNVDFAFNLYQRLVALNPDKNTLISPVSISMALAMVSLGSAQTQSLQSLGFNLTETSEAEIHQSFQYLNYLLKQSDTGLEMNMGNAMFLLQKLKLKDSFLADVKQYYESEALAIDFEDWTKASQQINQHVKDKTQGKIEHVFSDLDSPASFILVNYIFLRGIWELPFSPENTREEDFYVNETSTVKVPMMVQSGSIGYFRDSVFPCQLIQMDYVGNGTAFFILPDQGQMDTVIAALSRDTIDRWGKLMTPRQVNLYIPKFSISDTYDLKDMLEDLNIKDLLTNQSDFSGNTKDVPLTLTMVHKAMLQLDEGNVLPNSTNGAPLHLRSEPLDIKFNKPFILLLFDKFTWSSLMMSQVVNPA
Procedure: (§1) Relative binding affinity (RBA) for partially purified CBG was determined by steroid competition for (^3 H)-B binding as described previously (14).
(§2) The displacement curve of 6,19-oxidoprogesterone is included for comparative purposes.

[2] = target: T2, MR from rat kidney (kidney cytosol) (Rattus norvegicus, UniProt P22199); test: competition with (^3 H)-ALDO for MR, rat kidney cytosol; format: binding
T2 sequence (P22199 1-981): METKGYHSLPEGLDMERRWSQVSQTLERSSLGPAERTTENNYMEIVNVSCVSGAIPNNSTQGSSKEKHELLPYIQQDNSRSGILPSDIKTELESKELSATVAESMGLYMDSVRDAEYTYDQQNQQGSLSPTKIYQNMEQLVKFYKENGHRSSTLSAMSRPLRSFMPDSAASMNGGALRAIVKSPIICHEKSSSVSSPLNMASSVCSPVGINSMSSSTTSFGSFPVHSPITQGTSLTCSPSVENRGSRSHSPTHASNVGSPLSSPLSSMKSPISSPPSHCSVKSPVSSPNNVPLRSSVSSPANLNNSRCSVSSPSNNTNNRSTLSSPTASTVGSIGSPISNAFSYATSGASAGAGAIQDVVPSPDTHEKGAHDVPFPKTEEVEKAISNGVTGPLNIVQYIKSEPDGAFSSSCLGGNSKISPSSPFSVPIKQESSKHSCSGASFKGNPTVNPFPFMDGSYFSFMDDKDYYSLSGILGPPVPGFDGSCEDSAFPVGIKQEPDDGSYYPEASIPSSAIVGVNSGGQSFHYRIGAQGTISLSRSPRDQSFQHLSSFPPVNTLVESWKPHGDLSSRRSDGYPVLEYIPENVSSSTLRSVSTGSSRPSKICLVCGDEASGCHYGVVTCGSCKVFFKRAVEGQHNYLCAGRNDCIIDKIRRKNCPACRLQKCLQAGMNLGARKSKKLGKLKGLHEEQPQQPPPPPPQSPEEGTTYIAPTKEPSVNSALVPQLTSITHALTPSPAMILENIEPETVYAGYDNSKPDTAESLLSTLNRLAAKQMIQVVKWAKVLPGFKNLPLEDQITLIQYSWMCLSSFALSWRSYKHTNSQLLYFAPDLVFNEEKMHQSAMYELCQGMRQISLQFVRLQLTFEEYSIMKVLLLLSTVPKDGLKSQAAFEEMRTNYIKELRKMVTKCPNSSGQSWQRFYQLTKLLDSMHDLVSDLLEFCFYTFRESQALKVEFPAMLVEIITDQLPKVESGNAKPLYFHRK
Procedure: Binding Assay: Adrenalectomized male Sprague-Dawley rats were bled to death by heart puncture. Cold 0.9% NaCI was injected profusely through the aorta until organs were completely blanched. Thymuses were used as a source of GR and kidneys as a source of MR. Homogenization and incubation conditions were performed as previously described, (14) and (15), respectively. Briefly, homogenates performed in cold TEGM buffer at pH 7.4 (0.1 M Tris-HCl, 10 mM EDTA, 10 mM α-mercaptoethanol, 20 mM Na2 MoO4, 25% glycerol, 0.1 mM PMSF, 2.0 TIU/ml aprotinin and 1 mg% Leupeptin) were centrifuged at 37,000 rev. for 30 min at 0° C. Supernatants from this centrifugation are referred to as "cytosol". […] (^3 H)-P4 binding to uterus PR was assayed on immature female rats according to Jordan et al (16).
as §1, §2

[3] = system: TAT induction in hepatocytes (GR); test: antagonism of TAT induction by DXM or B in hepatocytes; format: cell-based, rat
Procedure: Hatched bars represent incubations performed in the presence of vehicle instead of agonist.
Bioassay : Liver glycogen deposition was measured on adrenalectoniized male Sprague-Dawley rats (180-220 g) as follows: steroids were dissolved in ethanol/propylene glycol/0.9% NaCl solution (3:3:34) and 100 μg steroid/l00 g body weight were injected i.m. the previous night. On the morning of the experiment this dose was reinjected intraperitoneally. Three hours later the rats were killed by cervical dislocation and livers were immediately removed. Glycogen purification and quantification were carried out according to Krisman's method (17). Na^+ -retaining properties were measured as described (5). Tyrosine aminotransferase (TAT) was induced in rat hepatocytes isolated by the procedure of Fry et al (18). TAT activity was determined according to Granner and Tomkins (19).
The basal TAT activity in hepatocytes, denominated control in the figure, was measured by adding vehicle (final concentration: 0.2% ethanol) to the culture. […] 2.5 μM 21OH-6OP inhibits 80% of TAT induction when concubated with B or DXM.

C[C@]12CC[C@H]3[C@@H](C[C@H]4OC[C@@]35CCC(=O)C=C45)[C@@H]1CC[C@@H]2C(=O)CO [21OH-6OP, 21-hydroxy-6,19-oxidoprogesterone]
increase of binding to CBG by 21-hydroxyl, relative to 6OP ([1]; 21OH-6OP vs 6OP): hundred times | inhibition at 2.5 µM ([1]; 12 h, 2.5 μM, FIG. 2-B, read-out: block of CBG binding sites): ~60% | Kd ([1]; partially purified CBG, (^3 H)-B, 12 h at 0° C., read-out: RBA for CBG (Kd)): 1.27 µM | competition with (^3 H)-ALDO for MR / interaction with MR ([2]; kidney cytosol, 5 nM (^3 H)-ALDO, 1.0 μM RU28362): unable to cross-react with uterus-PR or kidney-MR; also recorded: does not compete efficiently with (^3 H)-ALDO for MR, even when a thousand fold excess was added; also recorded: no ability to interact with MR nor PR | change of binding to MR by 21-hydroxyl introduction ([2]; vs 6,19-oxidopregnane skeleton, panel 2-C): does not improve the binding of the 6,19-oxidopregnane skeleton to MR | inhibition of TAT induction by B ([3]; 2.5 μM steroid vs 100 nM B): 80% | inhibition of TAT induction by DXM ([3]; 2.5 μM steroid vs 100 nM DXM): 80% | antagonism of TAT induction by B (in words) ([3]; 2.5 μM steroid, 100 nM B): shows antagonist effect on TAT induction; also recorded: antagonize TAT induction by corticosterone and decamethasone; also recorded: significantly inhibited | antagonism of TAT induction by DXM (in words) ([3]; 2.5 μM steroid, 100 nM DXM): shows antagonist effect on TAT induction; also recorded: antagonize TAT induction by corticosterone and decamethasone; also recorded: significantly inhibited
